{"source": "patent US20250109387A1", "about": "“SMOOTH MUSCLE CELLS SEEDED IN MICROCHANNELS WITHIN HYDROGELS TO FORM FUNCTIONAL MEDIAL LAYERS IN ENGINEERED MICROVASCULATURE” (VANDERBILT UNIVERSITY, priority 2023, published 2025)", "system": "HASMCs", "test": "Calcium imaging of HASMCs carrying GCaMP6f after ET-1 exposure", "type": "cell-based, human", "settings": "500 nM endothelin-1; HASMCs cultured in flasks (2D) and in channels (3D); fluorescence microscopy", "method": "Calcium imaging: HASMCs were infected with lentivirus carrying GCaMP6f and cultured in flasks (2D) and in channels (3D). Cells were then exposed to 500 nM endothelin-1 (ET-1, vasoconstrictor), and imaged via fluorescence microscopy (FIGS. 16A-16F)."}
{"substance": "endothelin-1 [ET-1]", "values": [{"measurement": "intracellular Ca^2+ release (GCaMP6f fluorescence over time)", "result": "substantial intracellular Ca^2+ release"}]}
